# Key:
# [1] = biological target: T1, G12D mutant K-Ras protein (Homo sapiens, UniProt P01116, G12D); assay: Degradation (knockdown) of G12D mutant K-Ras protein forcibly expressed in HeLa cells, Western blot analysis; type: cell-based; settings: FIG. 4
# T1 construct: expressed in transfected cells; host or cells: HeLa
# Description: In Example 5, degradation (knockdown) of the G12D mutant K-Ras protein forcibly expressed in HeLa cells through TUS-007 was evaluated by Western blot analysis.
# A plasmid expressing the G12D mutant K-Ras protein (K-Ras-G12D) was prepared, as in Example 4.
# As in Example 4, the plasmid was introduced into HeLa cells to transiently overexpress a G12D mutant K-Ras protein or a DsRed protein for comparison in the cells. HeLa cells into which the plasmid had been introduced were seeded in a 24-well plate at a cell density of 4×10^4 cells/well, and then cultured under conditions of 37° C. and 5 vol % CO2 for 40 hours.
# TUS-007 was added to HeLa cells as in Example 4. Furthermore, in addition to an experiment group in which a DMSO solution containing TUS-007 had been added, an experiment group in which a DMSO solution containing Ras-SOS-NH2 had been added was prepared. DMSO was used as a control.
# As in Example 3, degradation of a G12D mutant K-Ras protein through TUS-007 was evaluated by Western blot analysis.
# [2] = biological target: T2, endogenous wild-type H-Ras protein (Mus musculus, UniProt Q61411); assay: Degradation of endogenous wild-type H-Ras protein in mouse pancreas and colorectal tissue, Western blot analysis; type: in vivo; settings: C57BL/6J mice, intraperitoneal, 48 hours, FIG. 8
# T2 construct: an endogenous wild-type K-Ras protein and wild-type H-Ras protein; from tissue; host or cells: mouse pancreas and colon
# T2 sequence (Q61411 whole entry): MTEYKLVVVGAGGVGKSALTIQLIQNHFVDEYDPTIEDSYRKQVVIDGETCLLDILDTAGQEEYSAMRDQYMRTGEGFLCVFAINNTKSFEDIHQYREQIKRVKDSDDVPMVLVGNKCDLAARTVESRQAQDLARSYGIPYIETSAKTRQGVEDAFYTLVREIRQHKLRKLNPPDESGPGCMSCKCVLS
# Description: In Example 9, in a mouse individual to which TUS-007 had been administered, the degradation (knockdown) of an endogenous wild-type K-Ras protein and wild-type H-Ras protein was evaluated by Western blot analysis.
# TUS-007 was dissolved in DMSO, and then dissolved in corn oil so that the concentration of DMSO was 10 vol %, and then intraperitoneally administered to C57BL/6J wild-type mice (8 to 9 weeks old, male) (CLEA Japan, Inc.) in an amount of 40 mg/kg body weight or 80 mg/kg body weight (n=3 to 4). Furthermore, in addition to a group in which TUS-007 was administered, a group in which Ras-SOS had been administered in a dose of 80 mg/kg body weight was prepared. As a control, an injection carrier (corn oil containing 10 vol % DMSO) was used. The mice were kept under an environment of ad libitum access to food and water. The mice were dissected under deep anesthesia 48 hours after administration. The pancreas and colon were excised, and flash frozen in liquid nitrogen.
# The frozen pancreas and colon were each triturated, and then TKM tissue lysis buffer (50 mM triethanolamine (pH 7.8), 50 mM KCl, 5 mM MgCl2, 0.25 M sucrose, 1 mM PMSF, Protein Inhibitors Cocktail-EDTA free (Nacalai Tesque, Inc.), 1 mM DTT, and a recombinant RNase inhibitor (0.2 U/μL, Takara Bio) were added, and subjected to centrifugation (at 13800 rpm×30 minutes, 4° C.), and the supernatants (pancreatic tissue extract and colorectal tissue extract) were collected. The concentration of the extracted proteins was quantified with a spectrophotometer.
# Each tissue extract collected was subjected to Western blot analysis. […]
# After electrophoresis, proteins were transferred to a PVDF membrane (Immobion™-P, Millipore) under conditions of 200 mA and 90 minutes using a tank-type blotting device and a transfer buffer (25 mM Tris-HCl, 195 mM glycine, 0.01% SDS, 15% methanol). […] Subsequently, the membrane was treated with a chemiluminescence reagent Immobilon™ Western (Millipore), and then chemiluminescence was detected using a lumino image analyzer LAS-3000 (FUJIFILM Corporation).
smiles,measurement,setting,value
CCC(C)[C@H](NC(=O)CCCCCCNC(=O)[C@H](CC(C)C)NC(=O)CNC(=O)c1cc(Cl)ccc1Cl)C(=O)Nc1ccc2[nH]c(Cc3c[nH]c4ccccc34)nc2c1 (stereo in doubt) [TUS-007],amount of the G12D mutant K-Ras protein (Western blot),[1],the amount of the G12D mutant K-Ras protein was reduced in a concentration-dependent manner
same,amount of the endogenous wild-type H-Ras protein in the pancreatic tissue (Western blot),"[2]; 40 or 80 mg/kg, pancreatic tissue",remarkably reduced in the pancreatic tissue
same,amount of the endogenous wild-type H-Ras protein in mouse tissues (Western blot),"[2]; TUS-007 40 or 80 mg/kg, Ras-SOS 80 mg/kg, pancreas and colon",reduced in a concentration-dependent manner
